According to publication PMC10141580, “Cyclic Dichalcogenides Extend the Reach of Bioreductive Prodrugs to Harness Thiol/Disulfide Oxidoreductases: Applications to seco-Duocarmycins Targeting the Thioredoxin System” (ACS Central Science, 2023):
Values joined by “and” are separate entries in the source; they are usually repeats but may differ in a detail not shown here. Equal values may be shown once. Read-outs that look alike come from different tables or passages of the source.

System: panel of 140 standard cancer cell lines
Test: ProliFiler-140 cancer cell line screen (CellTiterGlo, 72 h)
Assay type: cell-based
Details: for IC50: Homo sapiens
Experimental: Incubations were performed for 72 h before automated viability readout with CellTiterGlo (Figure 8).
End of Figure S11 (part 5 of 5): ProliFiler-140 cancer cell line screening for cytotoxicity of the prodrugs.
8-data-point dose response curves from CellTiter-Glo® viability readout.
ProliFiler-140 cell line panel part V

For `COc1cc2cc(C(=O)N3C[C@@H](CCl)c4c3cc(OC(=O)N3CCN(C(=O)CCC(=O)N5CCN(C)CC5)[C@H]5CSSC[C@H]53)c3ccccc43)[nH]c2c(OC)c1OC` [P-SS66C-CBI-TMI], the IC50 (KG-1a, read-out: IC50 [M] (ProliFiler-140), KG-1 a (Blood)) was 1.07e-07 M, the IC50 (KMS-12-BM, read-out: IC50 [M] (ProliFiler-140), KMS-12-BM (Blood)) was 3.3e-08 M and the IC50 (LN-229, read-out: IC50 [M] (ProliFiler-140), LN229 (Brain)) was 1.33e-07 M. It also gave an IC50 (LNCaP, read-out: IC50 [M] (ProliFiler-140), LnCap (Prostate)) of 2.7e-08 M, an IC50 (LoVo, read-out: IC50 [M] (ProliFiler-140), LOVO (Colon)) of 1.93e-08 M and an IC50 (MCF7, MCF-7) of 3.1e-08 M. The IC50 (MCF7, read-out: IC50 [M] (ProliFiler-140), MCF-7 (Breast)) was 3.1e-08 M, the IC50 (MDA-MB-231, read-out: IC50 [M] (ProliFiler-140), MDA MB 231 (Breast)) was 1.36e-07 M and the IC50 (MDA-MB-435, MDA MB 435 (Skin), read-out: IC50 [M] (ProliFiler-140)) was 1.3e-07 M. The IC50 (MDA-MB-468, MDA-MB-468) was 1.9e-08 M, the IC50 (MDA-MB-468, read-out: IC50 [M] (ProliFiler-140), MDA-MB-468 (Breast)) was 1.9e-08 M and the IC50 (MEC1, read-out: IC50 [M] (ProliFiler-140), MEC-1 (Blood)) was 1.1e-08 M. It also gave an IC50 (MIA PaCa-2, read-out: IC50 [M] (ProliFiler-140), Mia PaCA 2 (Pancreas)) of 8.56e-08 M, an IC50 (MKN-1, read-out: IC50 [M] (ProliFiler-140), MKN-1 (Stomach)) of 1.4e-07 M and an IC50 (MKN-45, read-out: IC50 [M] (ProliFiler-140), MKN-45 (Stomach)) of 8.2e-08 M. It also gave an IC50 (MOLM-13, read-out: IC50 [M] (ProliFiler-140), MOLM-13 (Blood)) of 5.3e-09 M, an IC50 (MOLT-4, read-out: IC50 [M] (ProliFiler-140), MOLT-4 (Blood)) of 8.6e-09 M and an IC50 (MV4-11, read-out: IC50 [M] (ProliFiler-140), MV4-11 (Blood)) of 1.5e-09 M. The IC50 (NALM-6, read-out: IC50 [M] (ProliFiler-140), NALM-6 (Blood)) was 2.47e-09 M, the IC50 (NCI-H82, read-out: IC50 [M] (ProliFiler-140), NCI-H82 (Lung)) was 8.8e-08 M and the IC50 (NCI-H292, read-out: IC50 [M] (ProliFiler-140), NCI-H292 (Lung)) was 3.8e-08 M. It also gave an IC50 (NCI-H441, read-out: IC50 [M] (ProliFiler-140), NCI-H441 (Lung)) of 5.05e-08 M, an IC50 (NCI-H460, read-out: IC50 [M] (ProliFiler-140), H460 (Lung)) of 5.5e-09 M and an IC50 (NCI-H838, read-out: IC50 [M] (ProliFiler-140), NCI-H838 (Lung)) of 7.4e-08 M. The IC50 (NCI-H1048, read-out: IC50 [M] (ProliFiler-140), NCI-H1048 (Lung)) was 4e-09 M, the IC50 (NCI-H1299, read-out: IC50 [M] (ProliFiler-140), H1299 (Lung)) was 5.38e-08 M and the IC50 (NCI-H1437, read-out: IC50 [M] (ProliFiler-140), NCI-H1437 (Lung)) was 1.85e-08 M. For the same molecule, the IC50 (NCI-H1563, read-out: IC50 [M] (ProliFiler-140), NCI-H1563 (Lung)) was 1.1e-07 M, the IC50 (NCI-H1573, read-out: IC50 [M] (ProliFiler-140), NCI-H1573 (Lung)) was 9e-08 M and the IC50 (NCI-H1581, read-out: IC50 [M] (ProliFiler-140), NCI-H1581 (Lung)) was 4.66e-08 M. The IC50 (NCI-H1703, read-out: IC50 [M] (ProliFiler-140), NCI-H1703 (Lung)) was 5.1e-08 M, the IC50 (NCI-H1838, read-out: IC50 [M] (ProliFiler-140), NCI-H1838 (Lung)) was 7.7e-08 M and the IC50 (NCI-H2009, read-out: IC50 [M] (ProliFiler-140), NCI-H2009 (Lung)) was 2.66e-08 M. The IC50 (NCI-H2228, read-out: IC50 [M] (ProliFiler-140), H2228 (Lung)) was 4.53e-08 M, the IC50 (NCI-H2286, read-out: IC50 [M] (ProliFiler-140), NCI-H2286 (Lung)) was 1.7e-08 M and the IC50 (NCI-N87, read-out: IC50 [M] (ProliFiler-140), NCI-N87 (Stomach)) was 7.5e-08 M. The IC50 (OCI-AML-3, read-out: IC50 [M] (ProliFiler-140), OCI-AML3 (Blood)) was 1.3e-08 M, the IC50 (OCI-AML-5, read-out: IC50 [M] (ProliFiler-140), OCI-AML5 (Blood)) was 6e-09 M and the IC50 (OCI-LY19, read-out: IC50 [M] (ProliFiler-140), OCI-LY19 (Blood)) was 2.83e-09 M. It also gave an IC50 (OPM-2, read-out: IC50 [M] (ProliFiler-140), OPM-2 (Blood)) of 2.61e-08 M, an IC50 (OVCAR-3, read-out: IC50 [M] (ProliFiler-140), OVCAR-3 (Ovary)) of 7.9e-08 M and an IC50 (P31-FUJ, read-out: IC50 [M] (ProliFiler-140), P31/FUJ (Blood)) of 2.3e-08 M. The IC50 (PANC-1, read-out: IC50 [M] (ProliFiler-140), PANC-1 (Pancreas)) was 2e-07 M, the IC50 (RL95-2, read-out: IC50 [M] (ProliFiler-140), RL95-2 (Endometrium)) was 1.25e-07 M and the IC50 (RPMI-8226, RPMI 8226) was 1.2e-08 M. It also gave an IC50 (RPMI-8226, read-out: IC50 [M] (ProliFiler-140), RPMI 8226 (Blood)) of 1.19e-08 M, an IC50 (SAOS-2, read-out: IC50 [M] (ProliFiler-140), Saos-2 EC (Bone)) of 6.63e-08 M and an IC50 (SCLC-21H, read-out: IC50 [M] (ProliFiler-140), SCLC-21H (Lung)) of 2.56e-08 M. It also gave an IC50 (SJSA-1, read-out: IC50 [M] (ProliFiler-140), SJSA-1 (Bone)) of 9.77e-08 M, an IC50 (SK-BR-3, read-out: IC50 [M] (ProliFiler-140), SK-BR-3 (Breast)) of 4.2e-08 M and an IC50 (SK-ES1, read-out: IC50 [M] (ProliFiler-140), SK-ES-1 (Bone)) of 2.71e-09 M. It also gave an IC50 (SK-LU-1, read-out: IC50 [M] (ProliFiler-140), SK-LU-1 (Lung)) of 2.3e-08 M, an IC50 (SK-MEL3, read-out: IC50 [M] (ProliFiler-140), SK-MEL-3 (Skin)) of 1.6e-07 M and an IC50 (SK-N-FI, read-out: IC50 [M] (ProliFiler-140), SK-N-FI (Brain)) of 1.39e-07 M. The IC50 (SK-N-MC, read-out: IC50 [M] (ProliFiler-140), SK-N-MC (Brain)) was 1.6e-09 M, the IC50 (SK-N-SH, read-out: IC50 [M] (ProliFiler-140), SK-N-SH (Brain)) was 1.1e-07 M and the IC50 (SK-OV-3, read-out: IC50 [M] (ProliFiler-140), SK-OV3 (Ovary)) was 3.72e-08 M. The IC50 (SNU1, read-out: IC50 [M] (ProliFiler-140), SNU-1 (Stomach)) was 2.3e-08 M, the IC50 (SNU-16, read-out: IC50 [M] (ProliFiler-140), SNU-16 (Stomach)) was 6.23e-08 M and the IC50 (SU-DHL-5, read-out: IC50 [M] (ProliFiler-140), SU-DHL-5 (Blood)) was 2.6e-09 M. The IC50 (SW480, read-out: IC50 [M] (ProliFiler-140), SW480 (Colon)) was 5.51e-08 M, the IC50 (SW948, read-out: IC50 [M] (ProliFiler-140), SW948 (Colon)) was 1.43e-07 M and the IC50 (SW1783, read-out: IC50 [M] (ProliFiler-140), SW-1783 (Brain)) was 4.85e-08 M. For the same molecule, the IC50 (SW-620, SW620) was 1.5e-07 M, the IC50 (SW-620, read-out: IC50 [M] (ProliFiler-140), SW620 (Colon)) was 1.53e-07 M and the IC50 (SiHa, read-out: IC50 [M] (ProliFiler-140), SiHa (Ovary)) was 1.13e-07 M. For the same molecule, the IC50 (T47D, T-47D) was 9.8e-08 M, the IC50 (T47D, read-out: IC50 [M] (ProliFiler-140), T-47D (Breast)) was 9.8e-08 M and the IC50 (T98G, read-out: IC50 [M] (ProliFiler-140), T98G (Brain)) was 8.08e-08 M. It also gave an IC50 (U2OS, read-out: IC50 [M] (ProliFiler-140), U2OS (Bone)) of 3.19e-08 M, an IC50 (U-87 MG, read-out: IC50 [M] (ProliFiler-140), U87MG (Brain)) of 1.5e-07 M and an IC50 (U-118-MG, read-out: IC50 [M] (ProliFiler-140), U118MG (Brain)) of 1.86e-07 M. For the same molecule, the IC50 (U-251, read-out: IC50 [M] (ProliFiler-140), U251MG (Brain)) was 1.2e-07 M, the IC50 (U-266, read-out: IC50 [M] (ProliFiler-140), U-266 (Blood)) was 9.38e-09 M and the IC50 (U-937, read-out: IC50 [M] (ProliFiler-140), U-937 (Blood)) was 1.15e-08 M. The IC50 (ZR-75-1, read-out: IC50 [M] (ProliFiler-140), ZR-75-1 (Breast)) was 3.07e-07 M, the “Reductive Activation Index” value (Hs 746T (Stomach)) was 13 and the “Reductive Activation Index” value (HuH7 (Liver)) was 6.45. For the same molecule, the “Reductive Activation Index” value (Hutu 80 (Duodenum)) was 5.62 and 5.6, the “Reductive Activation Index” value (JIMT-1 (Breast)) was 15 and the “Reductive Activation Index” value (K562 (Blood)) was 8.6. The “Reductive Activation Index” value (KARPAS 299 (Blood)) was 6.55 and the “Reductive Activation Index” value (KG-1 (Blood)) was 3.24.
